Legend:
[1] = system: IgE antibodies from patients; assay: Epitope mapping (3): alanine scanning; parameters: species or system human; conditions: positions numbered within the region important for binding; no influence on IgE binding when substituted by alanine
Procedure: From the amino acid sequences identified above in (A), a library of peptide fragments in which N-terminal amino acids were substituted one by one by alanine according to a technique called alanine scanning (Non Patent Literature 5) was prepared by the same technique as described above. The presence or absence of binding of an IgE antibody present in the serum of a patient and a non-fish-allergic subject to each peptide fragment was measured by the same technique as described above. Amino acids at positions where the binding activity against IgE antibodies from patients were lost or decreased by the substitution by alanine while binding activity against IgE antibodies from non-fish-allergic subjects arose were confirmed as amino acids important for exertion of original antigenicity, or amino acids influencing exertion of original antigenicity.
Chemiluminescence intensity in images obtained by measurement was converted into a numeric value in the same manner as in (A) using ImageQuant TL (GE Healthcare). When values obtained using the sequences (SEQ ID NOs: 150-204) that were of the peptides confirmed to bind to an IgE antibody in a patient specific manner from the images obtained from results about the serum of 5 patients and served as the basis of overlapping were defined as 100%, it was determined that: a peptide having a value of less than 20% had no binding activity against IgE antibodies; a peptide having a value of 20% or more and less than 50% had binding activity, albeit poor, against IgE antibodies; a peptide having a value of 50% or more and less than 70% had binding activity, albeit somewhat poor, against IgE antibodies; a peptide having a value of 70% or more and less than 90% had equivalent binding activity against IgE antibodies; and a peptide having a value of 90% or more had almost equivalent or good binding activity against IgE antibodies and was thus a peptide had remaining binding activity against IgE antibodies.
By this analysis, common sequences important for exertion of original antigenicity were found in regions important for binding to IgE antibodies from patients, in the sequences serving as the basis of overlapping.

[2] = system: IgE antibodies from patients; assay: Epitope mapping (2): overlapping 10-amino-acid peptide fragments shifted by one amino acid; type: binding, human; conditions: positions numbered within the 15-amino-acid epitope; serum of 5 patients
Description: On the basis of the sequences (SEQ ID NOs: 150-154 for alpha-actinin-3, SEQ ID NO: 155 for EEF1A2 binding protein-like, SEQ ID NOs: 156 and 157 for alpha-1,4-glucan phosphorylase, SEQ ID NOs: 158 and 159 for elongation factor 2, SEQ ID NOs: 160-162 for heat shock cognate 70 kDa protein, SEQ ID NOs: 163-167 for serotransferrin, SEQ ID NOs: 168-171 for myosin binding protein H-like, SEQ ID NOs: 172-174 for desmin (fragment), SEQ ID NOs: 175-178 for capping protein (actin filament) muscle Z-line beta, SEQ ID NOs: 179-185 for myosin heavy chain, fast skeletal muscle-like, SEQ ID NO: 186 for glycogen phosphorylase, muscle form-like, SEQ ID NOs: 187-196 for myosin-binding protein C, fast-type-like, SEQ ID NO: 197 for ATP synthase subunit beta, mitochondrial, SEQ ID NO: 198 for L-lactate dehydrogenase A chain-like, SEQ ID NO: 199 for aldolase, SEQ ID NOs: 200-202 for β-enolase, and SEQ ID NOs: 203 and 204 for glyceraldehyde-3-phosphate dehydrogenase) of the peptides bound to an IgE antibody in serum in a patient-specific manner as described above in (A), a library of overlapping peptide fragments (length: 10 amino acids) was prepared using the sequences of the peptides and sequences in which sequences were added so as to flank each peptide in the amino acid sequences of allergen components (SEQ ID NO: 2 for alpha-actinin-3, SEQ ID NO: 5 for EEF1A2 binding protein-like, SEQ ID NO: 10 for alpha-1,4-glucan phosphorylase, SEQ ID NO: 19 for elongation factor 2, SEQ ID NO: 26 for heat shock cognate 70 kDa protein, SEQ ID NO: 33 for serotransferrin, SEQ ID NO: 43 for myosin binding protein H-like, SEQ ID NO: 56 for desmin (fragment), SEQ ID NO: 61 for capping protein (actin filament) muscle Z-line beta, SEQ ID NO: 70 for myosin heavy chain, fast skeletal muscle-like, SEQ ID NO: 110 for glycogen phosphorylase, muscle form-like, SEQ ID NO: 121 for myosin-binding protein C, fast-type-like, SEQ ID NO: 138 for ATP synthase subunit beta, mitochondrial, SEQ ID NO: 144 for L-lactate dehydrogenase A chain-like, SEQ ID NO: 445 for aldolase, SEQ ID NO: 446 for β-enolase, and SEQ ID NO: 447 for glyceraldehyde-3-phosphate dehydrogenase) comprising the sequences of the peptide. Epitope mapping was carried out using the library.
The peptides to be synthesized were shifted by one amino acid.
The library was prepared by the same procedure as described above in (A), and the presence or absence of binding of an IgE antibody present in the serum of a patient and a non-fish-allergic subject to each peptide fragment was measured by the same technique as described above. Amino acids at positions where the binding activity against IgE antibodies from patients were lost or decreased in the peptides shifted by one amino acid while binding activity against IgE antibodies from non-fish-allergic subjects arose were confirmed as amino acids adversely affecting the specificity of binding to IgE antibodies.
Chemiluminescence intensity in images obtained by measurement was converted into a numeric value in the same manner as in (A) using ImageQuant TL (GE Healthcare). […]

[3] = system: IgE antibody present in the serum of a fish-allergic patient; assay: Epitope mapping (1): peptide array of overlapping 15-amino-acid peptides; type: binding, human; conditions: average of 5 patients / average of 4 non-fish-allergic subjects at least 1.5, Mann-Whitney U test
Procedure: Epitope mapping was carried out using a library of overlapping peptides (length: 15 amino acids) corresponding to the amino acid sequences identified as allergy components of fish and the amino acid sequences of known fish allergy antigens aldolase, β-enolase, and glyceraldehyde-3-phosphate dehydrogenase (Non Patent Literature 2-4). Specifically, the library of overlapping peptides was prepared on the basis of the amino acid sequences of SEQ ID NO: 2 for alpha-actinin-3, SEQ ID NO: 5 for EEF1A2 binding protein-like, SEQ ID NO: 10 for alpha-1,4-glucan phosphorylase, SEQ ID NO: 19 for elongation factor 2, SEQ ID NO: 26 for heat shock cognate 70 kDa protein, SEQ ID NO: 33 for serotransferrin, SEQ ID NO: 43 for myosin binding protein H-like, SEQ ID NO: 56 for desmin (fragment), SEQ ID NO: 61 for capping protein (actin filament) muscle Z-line beta, SEQ ID NO: 70 for myosin heavy chain, fast skeletal muscle-like, SEQ ID NO: 110 for glycogen phosphorylase, muscle form-like, SEQ ID NO: 121 for myosin-binding protein C, fast-type-like, SEQ ID NO: 138 for ATP synthase subunit beta, mitochondrial, SEQ ID NO: 144 for L-lactate dehydrogenase A chain-like, SEQ ID NO: 445 for aldolase, SEQ ID NO: 446 for β-enolase, and SEQ ID NO: 447 for glyceraldehyde-3-phosphate dehydrogenase.
The peptides to be synthesized were shifted by 10 amino acids.
For preparation of peptide arrays, the Intavis CelluSpots™ technique was used. Specifically, the peptide arrays were prepared by the following procedure: (1) synthesizing peptides of interest on amino-modified cellulose disks using an automated chemical synthesis apparatus (Intavis MultiPep RS), (2) dissolving the amino-modified cellulose disks to obtain a cellulose-bound peptide solution, and (3) spotting the cellulose-bound peptides onto coated glass slides. The details of each procedure are as described below.
The presence or absence of binding, to each peptide fragment, of an IgE antibody present in the serum of a fish-allergic patient was measured through antigen-antibody reaction using the peptide arrays. The measurement was carried out according to the following procedure. • (1) The peptides were shaken at room temperature for 1 hour in PBST. • (2) The peptide arrays were shaken at overnight at room temperature in 5% serum/PBST. • (3) The peptide arrays were washed with a PBST solution (a PBS buffer containing 0.1% Tween 20 nonionic surfactant) for 5 minutes (×3). • (4) Anti-human IgE antibody-HRP(1:5,000, PBST) was added thereto, and the peptide arrays were shaken at room temperature for 1 hour. • (5) The peptide arrays were washed with a PBST solution for 5 minutes (×3). • (6) Pierce ECL Plus Western Blotting Substrate (produced by Thermo Fisher Scientific) was added thereto, and the peptide arrays were shaken at room temperature for 5 minutes. • (7) The chemiluminescence of the peptides treated as described above in (1) to • (6) was measured using Amersham Imager 600.
Chemiluminescence intensity in images obtained by the measurement described above in (7) was converted into a numeric value using ImageQuant TL (GE Healthcare). The average value of numeric values determined from images obtained from results about the serum of 5 patients was divided by the average value of numeric values determined from images obtained from results about the serum of 4 non-fish-allergic subjects. It was determined that a peptide having a calculated value (average value of the patient group/average value of the non-fish-allergic subject group) of at least 1.5 and a significant difference of […] in the Mann-Whitney U test was a peptide bound to an IgE antibody in a patient-specific manner.

Row | Substance | Non-binding-influencing amino acid in region important for binding [1] | Positions of amino acids of region important for binding in epitope [2] | IgE antibody binding in a patient-specific manner [3]
1 | 6 (LDNRLYYMVAEHDSS; epitope) [compound 6] | 8 | 1-11 | bind in a patient-specific manner
2 | 8 (DRFKVFADYEAYIKS; epitope) [compound 8] |  | 2-9 | bind in a patient-specific manner
3 | 9 (AIMDKKSNIRNMSVI; epitope) [compound 9] |  |  | bind in a patient-specific manner
4 | 10 (GKSTLTDSLVSKAGI; epitope) [compound 10] |  |  | bind in a patient-specific manner
5 | 37 (GGYIQAVLDRNLCEN; epitope) [compound 37] | 3 |  | bind in a patient-specific manner
6 | 48 (NVAKAHGGYSVFAGV; epitope) [compound 48] |  |  | bind in a patient-specific manner
7 | 49 (VLAGEPVGSRSKVTV; epitope) [compound 49] | 6 | 5-13 | bind in a patient-specific manner
8 | 50 (SYGRALQASALKAWG; epitope) [compound 50] |  |  | bind in a patient-specific manner
9 | 54 (YMVYMFKYDSTHGRF; epitope) [compound 54] |  | 1-15 | bind in a patient-specific manner
10 | 55 (PASYDAIKKVVKAAA; epitope) [compound 55] | 5 |  | bind in a patient-specific manner
